In patent publication US4806680A, “3-halovinylglycine antibacterial agents” (Merck & Co., Inc., priority 1987, dated 1989):
≈ marks a conversion by molar mass, not a printed value. Where a name gives a salt, the structure may show the parent alone.

Assays:
[1] = system: E. coli DC2; assay: Agar dilution assay (M.I.C.); assay type: cell-based; conditions: Escherichia coli, read-out: minimum inhibitory concentration (M.I.C.)
Procedure: (§1) Representative 3-halovinylglycines and amino acid conjugates were tested for antibacterial activity by an agar dilution assay [being an modification of the antagonist-free-medium assay described in: Antimicrobial Agents and Chemotherapy, May 1979, pp 677-683 and pp 684-695]. Compounds assayed include (L) and (D)-3-chlorovinylglycine (HCL salts), (L) norvalyl-(L), (D), and (DL)-3 chlorovinylglycine (CF3 COOH salts), and (L) norvalyl-(L), (D), and (DL)-3 fluorovinylglycine (CF3 COOH) salts.

[2] = system: S. aureus; assay: Agar dilution assay (M.I.C.); assay type: cell-based, Staphylococcus aureus; conditions: for MIC: Staphylococcus aureus, read-out: minimum inhibitory concentration (M.I.C.); for antibacterial activity (in words): vs S. aureus
Procedure: as §1

[3] = system: cystathionine synthetase; conditions: synthesis of cystathionine from serine; cited from earlier work
[4] = system: E. coli; assay: Agar dilution assay (M.I.C.); assay type: cell-based, Escherichia coli; conditions: vs E. coli
Procedure: as §1

[5] = system: K. pneumoniae; assay: Agar dilution assay (M.I.C.); assay type: cell-based, Klebsiella pneumoniae; conditions: vs K. pneumoniae
Procedure: as §1

[6] = system: Strep. faecalis; assay: Agar dilution assay (M.I.C.); assay type: cell-based, Streptococcus faecalis; conditions: vs Strep. faecalis
Procedure: as §1

[7] = system: E. Coli alanine racemase; assay: Inhibition of E. coli alanine racemase; assay type: biochemical
[8] = system: E. coli TEM 2^+; assay: Agar dilution assay (M.I.C.); assay type: cell-based; conditions: Escherichia coli, read-out: minimum inhibitory concentration (M.I.C.)
Procedure: as §1

[9] = system: Sal. typhimurium; assay: Agar dilution assay (M.I.C.); assay type: cell-based; conditions: Salmonella enterica, read-out: minimum inhibitory concentration (M.I.C.)
Procedure: as §1

[10] = system: eleven representative strains of pathogenic bacteria; assay: Agar dilution assay, panel of eleven strains; assay type: cell-based; conditions: for number of test species against which activity is shown: M.I.C. equal to or less than 256 indicates activity, 11 test species
Procedure: as §1
The antibacterial activity of the representative structure I compounds versus eleven representative strains of pathogenic bacteria is shown in the following Table.

C=C(Cl)C(NC(=O)[C@@H](N)CCC)C(=O)O (mixture of isomers) [(L)-NVA--(DL)-Cl--vinylgly, L-norvalyl-D,L-3-chlorovinylglycine]
MIC [1]: 4000 µg/mL | MIC [2]: ≤ 250 µg/mL

C=C(Cl)C(N)C(=O)O (racemic) [racemic 3-chlorovinylglycine, 2-amino-3-chloro-3-butenoic acid]
inactivation of cystathionine synthetase (in words) [3]: not being an inactivator

C=C(Cl)[C@@H](N)C(=O)O [(D)Cl vinylgly, (D)-3-Chlorovinylglycine hydrochloride]
antibacterial activity (in words) [4]: exhibits antibacterial activity | antibacterial activity (in words) [5]: exhibits antibacterial activity | antibacterial activity (in words) [6]: exhibits antibacterial activity | inhibition of alanine racemase (in words) [7]: potent irreversible inhibitor | antibacterial activity (in words) [2]: exhibits antibacterial activity

C=C(Cl)[C@@H](NC(=O)[C@@H](N)CCC)C(=O)O [(L)-NVA--(D)-Cl--vinylgly, L-norvalyl-D-3-chlorovinylglycine]
MIC [1]: 32000 µg/mL (≈ 136 mM)

C=C(F)C(NC(=O)[C@@H](N)CCC)C(=O)O (stereo partly drawn) [(L)-NVA--(DL)-F--vinylgly, (L,DL)-Norvalyl-3-fluorovinylglycine trifluoracetate]
MIC [1]: 4000 µg/mL (≈ 18.3 mM) | MIC [2]: 1000 µg/mL (≈ 4.58 mM)

C=C(Cl)[C@H](NC(=O)[C@@H](N)CCC)C(=O)O [(L)-NVA--(L)-Cl--vinylgly, (L,L)-Norvalyl 3-chlorovinylglycine trifluoroacetate]
MIC [1]: 1000 µg/mL | MIC [8]: 8000 µg/mL | MIC [9]: 64000 µg/mL | number of test species against which activity is shown [10]: 8 of 11

C=C(F)[C@H](NC(=O)[C@@H](N)CCC)C(=O)O [(L)-NVA--(L)-F--vinylgly, (L,L)-Norvalyl-3-fluorovinylglycine trifluoroacetate]
MIC [1]: 2000 µg/mL | MIC [8]: 16000 µg/mL | relative activity in the antibacterial agar dilution assay ([10]; (L,L) versus (L,D) diastereomer): more active | number of test species against which activity is shown [10]: 9 of 11

C=C(Cl)[C@H](N)C(=O)O [(L)Cl vinylgly, L-3-chlorovinylglycine]
antibacterial activity (in words) [5]: exhibits antibacterial activity | antibacterial activity (in words) [6]: exhibits antibacterial activity | inhibition of alanine racemase (in words) [7]: inhibits | antibacterial activity (in words) [2]: exhibits antibacterial activity
